The assay addresses T1, human GLP-2 receptors (Homo sapiens, UniProt O95838, D470N).
T1 sequence (O95838 1-553 D470N): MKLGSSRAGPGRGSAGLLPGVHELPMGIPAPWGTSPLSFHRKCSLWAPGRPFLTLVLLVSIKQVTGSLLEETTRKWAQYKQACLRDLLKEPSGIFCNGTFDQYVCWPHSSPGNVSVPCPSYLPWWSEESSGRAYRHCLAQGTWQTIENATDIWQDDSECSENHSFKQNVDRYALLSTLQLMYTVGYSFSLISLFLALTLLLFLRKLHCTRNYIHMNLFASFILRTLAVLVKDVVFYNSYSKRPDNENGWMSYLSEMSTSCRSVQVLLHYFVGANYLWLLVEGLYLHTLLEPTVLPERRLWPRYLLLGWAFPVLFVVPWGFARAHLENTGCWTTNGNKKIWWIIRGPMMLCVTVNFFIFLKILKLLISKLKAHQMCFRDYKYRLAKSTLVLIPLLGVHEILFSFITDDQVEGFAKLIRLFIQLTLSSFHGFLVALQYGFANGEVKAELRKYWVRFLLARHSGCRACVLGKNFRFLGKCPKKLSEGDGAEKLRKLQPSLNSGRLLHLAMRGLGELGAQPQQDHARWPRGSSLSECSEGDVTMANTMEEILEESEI
The assay can be described thus: GLP-2 receptor efficacy assay (cAMP AlphaScreen). In kind it is cell-based. An excerpt:
The hGLP2-R was purchased from MRC-geneservice, Babraham, Cambridge as an Image clone: 5363415 (11924-117). For subcloning into a mammalian expression vector, primers for subcloning were obtained from DNA-Technology, Risskov, Denmark. The 5' and 3' primers used for the PCR reaction include terminal restriction sites for cloning and the context of the 5' primer is modified to a Kozak consensus without changing the sequence of the product encoded by the ORF. A standard PCR reaction was run using Image clone 5363415 (11924-117) as a template with the above mentioned primers and Polymerase Herculase II Fusion in a total vol. of 50µl. The generated PCR product was purified using GFX PCR and Gel band purification kit, digested with restriction enzymes and cloned into the mammalian expression vector using Rapid DNA Ligation Kit. Ligation reaction was transformed to XL10 Gold Ultracompetent cells and colonies were picked for DNA production using Endofree Plasmid maxi kit. Subsequent sequence analysis was conducted by MWG Eurofins, Germany.
HEK293 cells were transfected using the Lipofectamine PLUS transfection method. The day before transfection, HEK293 cells were seeded in two T75 flasks at a density of 2 x 10^6 cells / T75 flask in cell culturing medium without antibiotics. On the day of transfection, cells were washed with 1x DPBS and medium was replaced with Optimem to a volume of 5 mL / T75 flask before addition of Lipofectamine-plasmid complexes were added gently and drop wise to the cells in T75 flasks and replaced with growth medium after 3 hours and again to growth medium supplemented with 500µg/mL G418 after 24 hours. After 4 weeks in G418 selection, clones were picked and tested in a functional assay.
The cAMP AlphaScreen® assay from Perkin Elmer was used to quantitate the cAMP response to activation of the GLP2 receptor. […] Table 2: GLP-2R EC50 measurements

“H-HGEGTFSSELATILDALAARDFIAWLIATKITDK-OH [ZP2469]”: the concentration for a half-maximal effect (EC50) came out at 0.052 nM. Further, the in vitro potency result (in words, relative to ZP1848) is “comparable to ZP1848”.

These data come from patent EP4796171A2 (Zealand Pharma A/S, priority 2017, dated 2018).
